According to patent US6878531B1, “Method for multiple site-directed mutagenesis” (Medical College of Georgia Research Institute, priority 2003, dated 2005):
≈ marks a conversion by molar mass, not a printed value.

Tested on: C.albicans cells
Experiment: Effective inhibitory concentrations for C.albicans cells grown in YPD medium
Format: cell-based, Candida albicans
Conditions: C.albicans cells grown in YPD medium at 30° C.

## CN[C@@H]1[C@@H](O)[C@@H](O[C@@H]2[C@@H](O)[C@H](O[C@H]3O[C@H]([C@@H](C)O)[C@@H](O)[C@H](O)[C@H]3N)[C@@H](N)C[C@H]2N)OC[C@]1(C)O [G418]
  IC50 (effective inhibitory concentration): 11 µg/mL (≈ 22.2 µM)
  IC90 (effective inhibitory concentration): 39 µg/mL (≈ 78.5 µM)
